Assays:
[1] = system: nerve growth factor (NGF) in C6 glioma cells; experiment: Ability to promote increase of nerve growth factor (NGF) produced in cell medium, ELISA; type: cell-based, Rat; conditions: 10 μM, 24 hours, FIG. 22
Procedure: Rat astrocyte-derived C6 glioma cells were dispensed in DMEM culture solution at a concentration of 1×10^5 cells/well in a 24 well plate and stabilized overnight, and then treated with the compounds of the present invention at a concentration of 10 μM, and reacted in a 37° C. incubator for 24 hours. The treated medium was collected and centrifuged, and then absorbance was measured using an enzyme linked immunoassay kit (ELISA kit).

[2] = system: NO production in BV2 cells (microglia); experiment: NO production in LPS-stimulated BV2 cells (Griess reaction), antineuritic activity; type: cell-based; conditions: 10 μM, 100 ng/ml LPS for 24 hours, nitrite by Griess reaction, FIG. 26
Procedure: BV2 cells (microglia) were dispensed in DMEM culture solution at a concentration of 6×10^4 cells/well in a 96 well plate, and then treated with the compounds of the present invention at a concentration of 10 μM, and incubated for 24 hours. After 24 hours, each sample was treated with a concentration of 10 μM, reacted for 1 hour, and then stimulated with 100 ng/ml of LPS for 24 hours. The production of nitrite, a soluble oxidation product of NO (nitric oxide), was measured in the culture medium through the Griess reaction.

SMILES	nerve growth factor produced in the cell medium [1]	NO production compared to untreated control group [2]
COc1cc2c(c(O)c1Br)CN(CCc1ccc(F)cc1)C2=O [Formula 1, 5-bromo-2-(4-fluorophenethyl)-4-hydroxy-6-methoxyisoindolin-1-one]	significantly excellent	–
COc1cc2c(c(O)c1Br)CN(CCc1ccc(C(F)(F)F)cc1)C2=O [Formula 6, 5-bromo-4-hydroxy-6-methoxy-2-(4-(trifluoromethyl)phenethyl)isoindolin-1-one]	significantly excellent	–
COCOc1c(Br)c(OC)cc2c1CN(CCc1ccc(OC)cc1)C2=O [Formula 12, 5-bromo-6-methoxy-4-(methoxymethoxy)-2-(4-methoxyphenethyl)isoindolin-1-one]	–	significantly reduced
C=Cc1c(OC)cc2c(c1OCOC)CN(CCc1ccc(OC)cc1)C2=O [Formula 13, 6-methoxy-4-(methoxymethoxy)-2-(4-methoxyphenethyl)-5-vinylisoindolin-1-one]	significantly excellent	significantly reduced
COc1ccc(CCN2Cc3c(cc(OC)c(CCO)c3O)C2=O)cc1 [Formula 15, 4-hydroxy-5-(2-hydroxyethyl)-6-methoxy-2-(4-methoxyphenethyl)isoindolin-1-one]	–	significantly reduced
COc1cc2c(c(O)c1CCCO)CN(CCc1ccccc1)C2=O [Formula 17, 4-hydroxy-5-(3-hydroxypropyl)-6-methoxy-2-phenethyl isoindolin-1-one]	–	significantly reduced
COc1cc2c(c3c1CCO3)CN(CCc1ccccc1)C2=O [Formula 19, 4-methoxy-7-phenethyl-7,8-dihydro-2H-furo[2,3-e]isoindole-6(3H)-1]	–	significantly reduced
C=Cc1c(OC)cc2c(c1O)CN(CCc1ccc(C(F)(F)F)cc1)C2=O [Formula 20, 4-hydroxy-6-methoxy-2-(4-(trifluoromethyl)phenethyl)-5-vinylisoindolin-1-one]	significantly excellent	–
C=Cc1c(OC)cc2c(c1O)CN(CCc1ccc(OC)cc1)C2=O [Formula 21]	–	significantly reduced

Reference: patent publication US20230331672A1, “6-METHOXY-2-PHENETHYL ISOINDOLINE-1-ONE DERIVATIVE AND COMPOSITION FOR TREATING NEUROLOGICAL DISORDERS, COMPRISING SAME” (CNG BIO CO., LTD., priority 2020, published 2023)
